Results: patent US6214881A, “IL-8 receptor antagonists” (SmithKline Beecham Corporation, priority 1999, dated 2001)

System: recombinant human IL-8 type a and b receptors
Assay: Receptor binding assays ([125I] IL-8 / 125I Gro-a, CHO membranes)
Details: 125I IL-8 (0.25 nM) or 125I Gro-a; IL-8Ra or IL-8Rb membranes from Chinese hamster ovary cells; receptor subtype not specified for the result
Procedure: The IL-8, and Gro-a chemokine inhibitiory effects of compounds of the present invention were determined by the following in vitro assay:
[^125 I] IL-8 (human recombinant) is obtained from Amersham Corp., Arlington Heights, Ill., with specific activity 2000 Ci/mmol. Gro-a is obtained from NEN-New England Nuclear. All other chemicals are of analytical grade. High levels of recombinant human IL-8 type a and b receptors are individually expressed in Chinese hamster ovary cells as described previously (Holmes, et al., Science, 1991, 253, 1278). The Chinese hamster ovary membranes are homogenized according to a previously described protocol (Haour. et al., J Biol Chem., 249 pp 2195-2205 (1974)). Except that the homogenization buffer is changed to 10 mM Tris-HCL, 1 mM MgSO4, 0.5 mM EDTA (ethylene-diaminetetra-acetic acid), 1 mMPMSF (a-toluenesulphonyl fluoride), 0.5 mg/L Leupeptin, pH 7.5. Membrane protein concentration is determined using Pierce Co. micro-assay kit using bovine serum albumin as a standard. All assays are performed in a 96-well micro plate format. Each reaction mixture contains ^125 I IL-8 (0.25 nM) or ^125 I Gro-a and 0.5 μg/mL of IL-8Ra or 1.0 μg/mL of IL-8Rb membranes in 20 mM Bis-Trispropane and 0.4 mM Tris HCl buffers, pH 8.0, containing 1.2 mM MgSO4, 0.1 mM EDTA, mM NaCl and 0.03% CHAPS. […] The filter is then dried and counted on the Betaplate liquid scintillation counter. […]

With `Cc1ccc(S(=O)(=O)NC(=O)c2cccc(NC(=O)Nc3ccccc3Br)c2)cc1` [Example 1, N-[3-(4-methylphenylsulfonyl)carboxamido]-N'-(2-bromophenyl)urea] the “activity in receptor binding assay (inhibition of IL-8 / Gro-a binding)” value was “active”.
